US9695155B2, “Herbicidal substituted pyrimidinyloxy benzene compounds” (E. I. DU PONT DE NEMOURS AND COMPANY, priority 2013, dated 2017)

Tests used:
Heteranthera limosa = assay: Test B flooded paddy test; type: in vivo; conditions: Flood, 250 g ai/ha, 0 to 100 scale where 0 is no effect and 100 is complete control
Outline: (§1)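 Scores from 0 (no effect) to 100 (complete control) are visual comparisons with controls, taken 13 to 15 days after compound was applied into floodwater 3 cm deep around 2-leaf plants.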

barnyardgrass [1] = assay: Test C postemergence; type: in vivo, Echinochloa crus-galli
Outline: (§2)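 Injury was assessed visually against controls 13 to 15 days after application, with 0 meaning no effect and 100 full control; missing entries are shown as a dash. Preemergence sprays hit seeded loam–sand soil, postemergence sprays hit 1- to 4-leaf plants.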

corn = assay: Test C postemergence; type: in vivo, Zea mays
Outline: as §2

barnyardgrass [2] = assay: Test B flooded paddy test; type: in vivo, Echinochloa crus-galli; conditions: Flood, 250 g ai/ha, 0 to 100 scale where 0 is no effect and 100 is complete control
Outline: as §1

pigweed [3] = assay: Test A preemergence; type: in vivo, Amaranthus retroflexus
Outline: (§3)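 Injury scores run from 0, no effect, to 100, complete control, judged by eye against untreated plants roughly 10 days after treatment. Chemicals carried a surfactant in a non-phytotoxic solvent and went onto loam–sand soil preemergence or onto one- to two-leaf seedlings postemergence.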

chickweed = assay: Test C postemergence; type: in vivo, Stellaria media
Outline: as §2

pigweed [4] = assay: Test A postemergence; type: in vivo, Amaranthus retroflexus
Outline: as §3

sedge, umbrella = assay: Test B flooded paddy test; type: in vivo, Cyperus difformis; conditions: Flood, 250 g ai/ha, 0 to 100 scale where 0 is no effect and 100 is complete control
Outline: as §1

johnsongrass = assay: Test C postemergence; type: in vivo, Sorghum halepense
Outline: as §2

large (Lg) crabgrass = assay: Test C postemergence; type: in vivo, Digitaria sanguinalis
Outline: as §2

waterhemp = assay: Test C postemergence; type: in vivo, Amaranthus rudis
Outline: as §2

oilseed rape = assay: Test C postemergence; type: in vivo, Brassica napus
Outline: as §2

wheat, winter = assay: Test C postemergence; type: in vivo, Triticum aestivum
Outline: as §2

[5] = 16 g ai/ha, postemergence, 0 is no effect, 100 is complete control
[6] = 31 g ai/ha, postemergence, visual rating, scale 0 to 100 (0 no effect, 100 complete control), 13 to 15 days
[7] = 125 g ai/ha, postemergence, visual rating, scale 0 to 100 (0 no effect, 100 complete control)
[8] = Postemergence, 62 g ai/ha, scale 0 to 100 (0 no effect, 100 complete control), 13 to 15 days

In the case of Fc1cccc(Oc2ncc(Cl)cn2)c1-n1cc(C(F)F)nn1 [Compound 141, 5-chloro-2-[2-[4-(difluoromethyl)-1H-1,2,3-triazol-1-yl]-3-fluorophenoxy]pyrimidine], the pest or weed control at 250 g/ha (Heteranthera limosa; Heteranthera limosa, read-out: Plant response rating, Ducksalad) is reported as 100%, the pest or weed control at 16 g/ha (barnyardgrass [1]; Echinochloa crus-galli, post-emergence, 16 g ai/ha, postemergence, 0 is no effect, 100 is complete control, read-out: Plant response rating (0 to 100), Barnyardgrass) is reported as 15% and the pest or weed control at 125 g/ha (barnyardgrass [1]; Echinochloa crus-galli, post-emergence, 125 g ai/ha, postemergence, visual rating, scale 0 to 100 (0 no effect, 100 complete control), read-out: Plant response rating, Barnyardgrass) is reported as 40%. The pest or weed control at 31 g/ha (barnyardgrass [1]; Echinochloa crus-galli, post-emergence, Postemergence, 31 g ai/ha, scale 0 to 100 (0 no effect, 100 complete control), 13 to 15 days, read-out: Plant response rating, Barnyardgrass) was 15%, the pest or weed control at 62 g/ha (barnyardgrass [1]; Echinochloa crus-galli, post-emergence, Postemergence, 62 g ai/ha, scale 0 to 100 (0 no effect, 100 complete control), read-out: Plant response rating, Barnyardgrass) was 20% and the plant injury at 16 g/ha (corn; Zea mays, post-emergence, 16 g ai/ha, postemergence, 0 is no effect, 100 is complete control, read-out: Plant response rating (0 to 100), Corn) was 5%. The Corn plant response rating (crop injury, 0 = no effect, 100 = complete kill) at 125 g/ha (corn; Zea mays, post-emergence, 125 g ai/ha, postemergence, visual rating, scale 0 to 100 (0 no effect, 100 complete control)) was 20%, the Corn plant response rating (crop injury, 0 = no effect, 100 = complete kill) at 62 g/ha (corn; Zea mays, post-emergence, Postemergence, 62 g ai/ha, scale 0 to 100 (0 no effect, 100 complete control)) was 5% and the pest or weed control at 250 g/ha (barnyardgrass [2]; Echinochloa crus-galli, read-out: Plant response rating, Barnyardgrass) was 100%. The pest or weed control at 125 g/ha (pigweed [3]; Amaranthus retroflexus, pre-emergence, 125 g ai/ha, 0 to 100 scale where 0 is no effect and 100 is complete control, read-out: Plant response rating, Pigweed) was 100%, the pest or weed control at 31 g/ha (pigweed [3]; Amaranthus retroflexus, pre-emergence, 240 h, 31 g ai/ha, 0 to 100 scale where 0 is no effect and 100 is complete control, visual, approximately 10 days, read-out: Plant response rating, Pigweed) was 100% and the pest or weed control at 16 g/ha (chickweed; Stellaria media, post-emergence, 16 g ai/ha, postemergence, 0 is no effect, 100 is complete control, read-out: Plant response rating (0 to 100), Chickweed) was 70%. It also gave a pest or weed control at 125 g/ha (chickweed; Stellaria media, post-emergence, 125 g ai/ha, postemergence, visual rating, scale 0 to 100 (0 no effect, 100 complete control), read-out: Plant response rating, Chickweed) of 100%, a pest or weed control at 62 g/ha (chickweed; Stellaria media, post-emergence, Postemergence, 62 g ai/ha, scale 0 to 100 (0 no effect, 100 complete control), read-out: Plant response rating, Chickweed) of 95% and a pest or weed control at 31 g/ha (pigweed [4]; Amaranthus retroflexus, post-emergence, 31 g ai/ha, 0 to 100 scale, 0 no effect, 100 complete control, read-out: Plant response rating, Pigweed) of 100%. For the same compound, the pest or weed control at 125 g/ha (pigweed [4]; Amaranthus retroflexus, post-emergence, 240 h, 125 g ai/ha, 0 to 100 scale where 0 is no effect and 100 is complete control, read-out: Pigweed plant response rating) was 100%, the pest or weed control at 250 g/ha (sedge, umbrella; Cyperus difformis, read-out: Plant response rating, Sedge, Umbrella) was 90% and the pest or weed control at 16 g/ha (johnsongrass; Sorghum halepense, post-emergence, 16 g ai/ha, postemergence, 0 is no effect, 100 is complete control, read-out: Plant response rating (0 to 100), Johnsongrass) was 5%. It also gave a pest or weed control at 125 g/ha (johnsongrass; Sorghum halepense, post-emergence, 125 g ai/ha, postemergence, visual rating, scale 0 to 100 (0 no effect, 100 complete control), read-out: Plant response rating, Johnsongrass) of 30%, a pest or weed control at 62 g/ha (johnsongrass; Sorghum halepense, post-emergence, Postemergence, 62 g ai/ha, scale 0 to 100 (0 no effect, 100 complete control), read-out: Plant response rating, Johnsongrass) of 10% and a pest or weed control at 16 g/ha (large (Lg) crabgrass; Digitaria sanguinalis, post-emergence, 16 g ai/ha, postemergence, 0 is no effect, 100 is complete control, read-out: Plant response rating (0 to 100), Crabgrass, Large) of 5%. The pest or weed control at 125 g/ha (large (Lg) crabgrass; Digitaria sanguinalis, post-emergence, 125 g ai/ha, postemergence, visual rating, scale 0 to 100 (0 no effect, 100 complete control), read-out: Plant response rating, Crabgrass, Large) was 45%, the pest or weed control at 62 g/ha (large (Lg) crabgrass; Digitaria sanguinalis, post-emergence, Postemergence, 62 g ai/ha, scale 0 to 100 (0 no effect, 100 complete control), read-out: Plant response rating, Crabgrass, Large) was 10% and the pest or weed control at 16 g/ha (waterhemp; Amaranthus tuberculatus, post-emergence, 16 g ai/ha, postemergence, 0 is no effect, 100 is complete control, read-out: Plant response rating (0 to 100), Waterhemp) was 85%. It also gave a pest or weed control at 125 g/ha (waterhemp; Amaranthus tuberculatus, post-emergence, 125 g ai/ha, postemergence, visual rating, scale 0 to 100 (0 no effect, 100 complete control), read-out: Plant response rating, Waterhemp) of 100%, a pest or weed control at 62 g/ha (waterhemp; Amaranthus tuberculatus, post-emergence, Postemergence, 62 g ai/ha, scale 0 to 100 (0 no effect, 100 complete control), read-out: Plant response rating, Waterhemp) of 100% and a plant injury at 16 g/ha (oilseed rape; Brassica napus, post-emergence, 16 g ai/ha, postemergence, 0 is no effect, 100 is complete control, read-out: Plant response rating (0 to 100), Oilseed Rape) of 50%. For the same compound, the plant injury at 125 g/ha (oilseed rape; Brassica napus, post-emergence, 125 g ai/ha, postemergence, visual rating, scale 0 to 100 (0 no effect, 100 complete control), read-out: Plant response rating, Oilseed Rape) was 98%, the plant injury at 62 g/ha (oilseed rape; Brassica napus, post-emergence, Postemergence, 62 g ai/ha, scale 0 to 100 (0 no effect, 100 complete control), read-out: Plant response rating, Oilseed Rape) was 95% and the plant injury at 16 g/ha (wheat, winter; Triticum aestivum, post-emergence, 16 g ai/ha, postemergence, 0 is no effect, 100 is complete control, read-out: Plant response rating (0 to 100), Wheat) was 0%. The plant injury at 125 g/ha (wheat, winter; Triticum aestivum, post-emergence, 125 g ai/ha, postemergence, visual rating, scale 0 to 100 (0 no effect, 100 complete control), read-out: Plant response rating, Wheat) was 25% and the plant injury at 62 g/ha (wheat, winter; Triticum aestivum, post-emergence, Postemergence, 62 g ai/ha, scale 0 to 100 (0 no effect, 100 complete control), read-out: Plant response rating, Wheat) was 5%.
In the case of FC(F)Oc1cnn(-c2c(Cl)cccc2Oc2ncc(Cl)cn2)c1 [Compound 258], the “Plant response rating, Ducksalad” value (Heteranthera limosa) is reported as 100, the “Plant response rating (0 to 100), Barnyardgrass” value (barnyardgrass [1]; [5]) is reported as 5 and the “Barnyardgrass plant response rating” value (barnyardgrass [1]; [6]) is reported as 10. For the same compound, the “Plant response rating, Barnyardgrass” value (barnyardgrass [1]; [7]) was 10, the “Plant response rating, Barnyardgrass” value (barnyardgrass [1]; [8]) was 10 and the “Plant response rating (0 to 100), Corn” value (corn; [5]) was 5. The “Corn plant response rating” value (corn; [6]) was 5, the “Plant response rating, Corn” value (corn; [7]) was 20 and the “Plant response rating, Corn” value (corn; [8]) was 10. For the same compound, the “Plant response rating, Barnyardgrass” value (barnyardgrass [2]) was 60, the “Plant response rating, Pigweed” value (pigweed [3]; 31 g ai/ha, 0 to 100 scale where 0 is no effect and 100 is complete control, visual, approximately 10 days) was 100 and the “Pigweed plant response rating (0 to 100 scale)” value (pigweed [3]; 125 g ai/ha) was 100. The “Plant response rating (0 to 100), Chickweed” value (chickweed; [5]) was 50, the “Chickweed plant response rating” value (chickweed; [6]) was 50 and the “Plant response rating, Chickweed” value (chickweed; [7]) was 95. The “Plant response rating, Chickweed” value (chickweed; [8]) was 90, the “Plant response rating, Pigweed” value (pigweed [4]; 31 g ai/ha, 0 to 100 scale, 0 no effect, 100 complete control) was 80 and the “Plant response rating, Pigweed” value (pigweed [4]; 125 g ai/ha, 0 to 100 scale, 0 no effect, 100 complete control) was 100. The “Plant response rating, Sedge, Umbrella” value (sedge, umbrella) was 95, the “Plant response rating (0 to 100), Johnsongrass” value (johnsongrass; [5]) was 0 and the “Johnsongrass plant response rating” value (johnsongrass; [6]) was 5. For the same compound, the “Plant response rating, Johnsongrass” value (johnsongrass; [7]) was 5, the “Plant response rating, Johnsongrass” value (johnsongrass; [8]) was 5 and the “Plant response rating (0 to 100), Crabgrass, Large” value (large (Lg) crabgrass; [5]) was 5. For the same compound, the “Crabgrass, Large plant response rating” value (large (Lg) crabgrass; [6]) was 5, the “Plant response rating, Crabgrass, Large” value (large (Lg) crabgrass; [7]) was 15 and the “Plant response rating, Crabgrass, Large” value (large (Lg) crabgrass; [8]) was 10. The “Plant response rating (0 to 100), Waterhemp” value (waterhemp; [5]) was 65, the “Waterhemp plant response rating” value (waterhemp; [6]) was 70 and the “Plant response rating, Waterhemp” value (waterhemp; [7]) was 90. For the same compound, the “Plant response rating, Waterhemp” value (waterhemp; [8]) was 80, the “Plant response rating (0 to 100), Oilseed Rape” value (oilseed rape; [5]) was 70 and the “Oilseed Rape plant response rating” value (oilseed rape; [6]) was 85. For the same compound, the “Plant response rating, Oilseed Rape” value (oilseed rape; [7]) was 98, the “Plant response rating, Oilseed Rape” value (oilseed rape; [8]) was 95 and the “Plant response rating (0 to 100), Wheat” value (wheat, winter; [5]) was 0. For the same compound, the “Wheat plant response rating” value (wheat, winter; [6]) was 0, the “Plant response rating, Wheat” value (wheat, winter; [7]) was 5 and the “Plant response rating, Wheat” value (wheat, winter; [8]) was 5.
